Measurements reported in patent publication US20230310414A1.
Read-outs that look alike come from different tables or passages of the source.

What was measured:
[1] = test system: IRAK1, NF-κB, MAPKs, IRAK4 (MyD88); experiment: MyD88 downstream signalling in human macrophages; format: cell-based
SARS-CoV-2 = experiment: cell viability (CPE) assay, VERO-E6 cells enriched for ACE-2 infected with SARS-CoV-2, CellTiter-Glo; format: cell-based; settings: for IC50: VERO-E6 cells enriched for ACE-2 plus SARS-CoV-2; for EC50: CPE assay
[2] = toxicity assay, VERO-E6 cells enriched for ACE-2 in the absence of virus, CellTiter-Glo; settings: African green monkey, VERO-E6 cells enriched for ACE-2 receptor, no virus
VERO-E6 cells = experiment: as above; settings: compound alone
[3] = human macrophages, through interaction with MyD88
[4] = Severe acute respiratory syndrome coronavirus 2, Vero C1008, positive controls, read-out: IC50 (μM), In Vitro Anti-SARS-CoV-2 Activity

O.O=C(OC[C@H]1O[C@@H](OC(=O)c2cc(O)c(O)c(O)c2)[C@H](OC(=O)c2cc(O)c(O)c(O)c2)[C@@H](OC(=O)c2cc(O)c(O)c(O)c2)[C@@H]1OC(=O)c1cc(O)c(O)c(O)c1)c1cc(O)c(O)c(O)c1
NF-κB translocation into the nucleus [1]: inhibited | activation of IRAK1, NF-κB, and MAPKs [1, 3]: potently reduced | expression of IRAK4 [1, 3]: increasing expression

CCN(CC)CCCC(C)Nc1ccnc2cc(Cl)ccc12 (centres unmarked) [Chloroquine, chloroquine, reference compound]
IC50 (SARS-CoV-2; [4]): 3.78 µM | CC50 [2]: > 30 µM

CCOC(=O)[C@H]1O[C@@H]1C(=O)N[C@@H](CC(C)C)C(=O)NCCC(C)C [E64d (aloxistatin), aloxistatin, reference compound]
IC50 (SARS-CoV-2; [4]): 7.48 µM | CC50 [2]: > 30 µM

CCN(CCO)CCCC(C)Nc1ccnc2cc(Cl)ccc12 (centres unmarked) [Hydroxychloroquine, hydroxychloroquine, reference compound]
IC50 (SARS-CoV-2; [4]): 3.53 µM | CC50 [2]: > 30 µM

CCC(CC)COC(=O)[C@H](C)N[P@](=O)(OC[C@H]1O[C@@](C#N)(c2ccc3c(N)ncnn23)[C@H](O)[C@@H]1O)Oc1ccccc1 [Remdesivir, remdesivir, reference compound]
CC50 [2]: > 30 µM

COc1ccc2cc1Oc1ccc(cc1)C[C@H]1c3cc(c(OC)cc3CCN1C)Oc1c(OC)c(OC)cc3c1[C@H](C2)N(C)CC3 [tetrandrine, (1S,14S)-9,20,21,25-tetramethoxy-15,30-dimethyl-7,23-dioxa-15,30-diazaheptacyclo[22.6.2.2^3,6.1^8,12.1^14,18.0^27,31.0^22,33]hexatriaconta-3(36),4,6(35),8,10,12(34),18,20,22(33),24,26,31-dodecaene]
EC50 (SARS-CoV-2; Severe acute respiratory syndrome coronavirus 2, Vero C1008, compound alone): 1.25 µM | SI (selectivity index; CC50/EC50) (SARS-CoV-2; compound alone): SI: 5.02. | CC50 [2]: 6.28 µM

(14S,27S)-22,33-dimethoxy-13,28-dimethyl-2,5,7,20-tetraoxa-13,28-diazaoctacyclo[25.6.2.2^16,19.1^3,10.1^21,25.0^4,8.0^31,35.0^14,39]nonatri-aconta-1(33),3(39),4(8),9,16(38),17,19(37),21,23,25(36),31,34-dodecaene [cepharanthine]
EC50 (SARS-CoV-2; compound alone): 0.51 µM | IC50 (SARS-CoV-2; compound alone, read-out: IC50): 0.51 µM | CC50 (VERO-E6 cells; VERO-E6 cells enriched for ACE-2, absence of virus): 7.22 µM | CC50 (VERO-E6 cells): 7.22 µM
